Measurements published in US8481539B2, “Alkynylaryl compounds and salts thereof, pharmaceutical compositions comprising same, methods of preparing same and uses of same” (Bayer Intellectual Property GmbH, priority 2007, dated 2013).

Target: T1, Tie-2 (Homo sapiens, UniProt Q02763)
T1 construct: fusion protein of GST and the intracellular domains of Tie-2; GST; made in house; host or cells: insect cells (Hi-5)
Assay: Tie-2-Kinase HTRF-Assay (assay 2)
Format: biochemical
Settings: pIC50 class; 10 μM ATP; read-out: Enzymatic Tie 2 activity (assay 2)
Text: Tie2-inhibitory activity of compounds of the present invention was quantified employing two Tie2 HTRF assay as described in the following paragraphs.
A recombinant fusion protein of GST and the intracellular domains of Tie-2, expressed in insect cells (Hi-5) and purified by Glutathion-Sepharose affinity chromatography was used as kinase. Alternatively, commercially available GST-Tie2-fusion protein (Upstate Biotechnology, Dundee, Scotland) can be used As substrate for the kinase reaction the biotinylated peptide biotin-Ahx-EPKDDAYPLYSDFG (C-terminus in amid form) was used which can be purchased e.g. from the company Biosynthan GmbH (Berlin-Buch, Germany). Detection of phosphorylated product is achieved specifically by a trimeric detection complex consisting of the phosphorylated substrate, streptavidin-XLent (SA-XLent) which binds to biotin, and Europium Cryptate-labeled anti-phosphotyrosine antibody PT66 which binds to phosphorylated tyrosine.
Tie-2 (3.5 ng/measurement point) was incubated for 60 min at 22° C. in the presence of 10 μM adenosine-tri-phosphate (ATP) and 1 μM substrate peptide (biotin-Ahx-EPKDDAYPLYSDFG-NH2) with different concentrations of test compounds (0 μM and concentrations in the range 0.001-20 μM) in 5 μl assay buffer [50 mM Hepes/NaOH pH 7, 10 mM MgCl2, 0.5 mM MnCl2, 1.0 mM dithiothreitol, 0.01% NP40, protease inhibitor mixture (“Complete w/o EDTA” from Roche, 1 tablet per 2.5 ml), 1% (v/v) dimethylsulfoxide]. The reaction was stopped by the addition of 5 μl of an aqueous buffer (25 mM Hepes/NaOH pH 7.5, 0.28% (w/v) bovine serum albumin) containing EDTA (90 mM) and the HTRF (Homogeneous Time Resolved Fluorescence) detection reagents streptavidine-XLent (0.2 μM, from Cis Biointemational, Marcoule, France) and PT66-Eu-Chelate (0.3 ng/μl; a europium-chelate labelled anti-phospho-tyrosine antibody from Perkin Elmer).
The resulting mixture was incubated 1 h at 22° C. to allow the binding of the biotinylated phosphorylated peptide to the streptavidine-XLent and the PT66-Eu-Chelate. Subsequently the amount of phosphorylated substrate peptide was evaluated by measurement of the resonance energy transfer from the PT66-Eu-Chelate to the streptavidine-XLent. Therefore, the fluorescence emissions at 620 nm and 665 nm after excitation at 350 nm was measured in a HTRF reader, e.g. a Rubystar (BMG Labtechnologies, Offenburg, Germany) or a Viewlux (Perkin-Elmer). The ratio of the emissions at 665 nm and at […] was taken as the measure for the amount of phosphorylated substrate peptide. The data were normalised (enzyme reaction without inhibitor=0 (% inhibition, all other assay components but no enzyme=100% inhibition) and IC50 values were calculated by a 4 parameter fit using an inhouse software.

T1 sequence (Q02763 770-1124 limits assumed, species assumed): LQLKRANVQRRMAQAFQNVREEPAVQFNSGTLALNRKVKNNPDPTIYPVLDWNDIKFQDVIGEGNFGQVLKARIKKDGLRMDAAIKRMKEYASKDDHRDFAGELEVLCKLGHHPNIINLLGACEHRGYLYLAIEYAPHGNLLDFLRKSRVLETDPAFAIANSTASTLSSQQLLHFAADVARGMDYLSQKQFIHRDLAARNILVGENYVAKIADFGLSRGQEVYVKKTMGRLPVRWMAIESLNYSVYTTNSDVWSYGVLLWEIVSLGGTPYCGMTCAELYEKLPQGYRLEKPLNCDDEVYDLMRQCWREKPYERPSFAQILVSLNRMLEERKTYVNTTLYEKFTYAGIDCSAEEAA

IC50, < 1 µM:
Cn1ncc2c(C#Cc3cccc(NC(=O)Nc4ccccc4)c3)cncc21 [Example 2.1, 1-[3-(1-Methyl-1H-pyrazolo[3,4-c]pyridin-4-ylethynyl)-phenyl]-3-phenyl-urea]
Cc1ccc(NC(=O)Nc2cccc(C(F)(F)F)c2)cc1C#Cc1cncc2c1cnn2C [Example 2.4, 1-[4-Methyl-3-(1-methyl-1H-pyrazolo[3,4-c]pyridin-4-ylethynyl)-phenyl]-3-(3-trifluoromethyl-phenyl)-urea]
Cn1ncc2c(C#Cc3cc(NC(=O)c4cccc(C(F)(F)F)c4)ccc3F)cncc21 [Example 1.9, N-[4-Fluoro-3-(1-methyl-1H-pyrazolo[3,4-c]pyridin-4-ylethynyl)-phenyl]-3-trifluoromethyl-benzamide]
Cn1ncc2c(C#Cc3cccc(NC(=O)c4cccc(C(F)(F)F)c4)c3)cncc21 [Example 1.5, N-[3-(1-Methyl-1H-pyrazolo[3,4-c]pyridin-4-ylethynyl)-phenyl]-3-trifluoromethyl-benzamide]
Cc1ccc(NC(=O)c2cccc(C(F)(F)F)c2)cc1C#Cc1cncc2c1cnn2C [Example 1.6, N-[4-Methyl-3-(1-methyl-1H-pyrazolo[3,4-c]pyridin-4-ylethynyl)-phenyl]-3-trifluoromethyl-benzamide]
